Measurements taken from publication PMC11767423, “Design, Synthesis, and Antioxidant and Anti-Tyrosinase Activities of (Z)-5-Benzylidene-2-(naphthalen-1-ylamino)thiazol-4(5H)-one Analogs: In Vitro and In Vivo Insights” (Molecules, 2025).
pKi: −log10 of the molar value.

Columns and labels:
mushroom tyrosinase = mushroom tyrosinase (Agaricus bisporus, UniProt C7FF04); assay: Kinetic experiment using mushroom tyrosinase (Lineweaver–Burk and Dixon plots); assay type: biochemical; settings: for pKi: Dixon plots, substrate L-DOPA; for inhibition mechanism: Lineweaver–Burk plots, L-DOPA 1–16 mM
Protocol: The plots for inhibitors 10 and 15 were obtained by measuring the initial rate of dopachrome production in the presence of various L-DOPA substrate concentrations (Figure 3A,C). For the kinetic experiments, compounds 10 and 15 were used at 0, 1, 2, and 4 μM and at 0, 4, 8, and 16 μM, respectively.
Ki, known as the dissociation constant or inhibition constant, describes the binding affinity between the enzyme and inhibitor. […] Dixon plots were acquired by plotting the inverse of the initial dopachrome formation rate against the inhibitor concentration (Figure 3B,D). Each Dixon plot produces four lines that merge at one point in the second quadrant. The absolute value of the x co-ordinate of the merge point represents the Ki value. […] The lower the Ki value, the stronger the binding affinity. Thus, compound 10 bound more strongly to the tyrosinase active site than compound 15.
The identification of the tyrosinase inhibition mechanism was carried out by kinetic studies using mushroom tyrosinase. Test samples (10 μL; compounds 10 and 15) were mixed with a mushroom tyrosinase aqueous solution (20 μL; 100 units/mL) and a substrate solution (170 μL; substrate [L-DOPA] and 17.2 mM sodium phosphate pH 6.5 buffer) in each well of 96-well microplate. To obtain Lineweaver–Burk plots for kinetic analysis, L-DOPA and test samples were used at various concentrations: 0, 1, 2, and 4 μM for 10; 0, 4, 8, and 16 μM for 15; and 1, 2, 4, 8, and 16 mM for L-DOPA. During a 30 min incubation period, the initial dopachrome formation rate was calculated by measuring the optical density at 475 nm at 5 min intervals using an ELISA reader. Lineweaver–Burk plots were prepared by plotting the inverse of the substrate concentration against the inverse of the initial dopachrome formation rate in the presence of four different concentrations of compounds 10 and 15.

[1] = tested on: tyrosinase activity of zebrafish larvae; assay: Tyrosinase activity in zebrafish larvae; assay type: in vivo, Danio rerio; settings: 76 hpf
Protocol: To quantify the tyrosinase activity in zebrafish larvae, 60 zebrafish larvae at 76 hpf were divided into three Eppendorf tubes and centrifuged at 10,000× g for 10 min at 4 °C. After removing the supernatant, the residue was lysed using radioimmunoprecipitation assay buffer (100 μL) (Biosedang, Gyeonggi-do, Republic of Korea) and homogenized for 5 min using a sonicator. The lysate was centrifuged at 10,000× g for 10 min at 4 °C. The supernatants were transferred to a new Eppendorf tube and the protein content was quantified using a bicinchoninic acid protein assay kit (Thermo Fisher Scientific, Waltham, MA, USA). An aliquot (100 μL) of 1 mM L-DOPA was added to the new Eppendorf tube containing a total of 300 μg of protein in 100 μL of protein lysate. Eppendorf tubes were incubated for 1 h at 37 °C and then transferred to each well of a 96-well plate. The absorbance of each well was measured at 475 nm to determine the tyrosinase activity of zebrafish larvae.

B16F10 cells [2] = assay: Cell viability on B16F10 cells (EZ-Cytox); assay type: cell-based; settings: 72 h; for B16F10 cell viability: 1, 2, 5, 10 and 20 μM
Protocol: Therefore, we investigated whether these compounds exert tyrosinase inhibitory activity in B16F10 mammalian cells. We examined the effects of these compounds on B16F10 cell viability. Cell viability was assessed for 72 h at five concentrations (1, 2, 5, 10, and 20 μM) of compounds 10 and 15.
The viability of B16F10 cells in the presence of compounds 10 and 15 was assayed. A 96-well microplate containing 1 × 10^3 B16F10 cells per well was incubated at 37 °C in a humid environment containing 5% CO2 for 24 h. Test samples (10 and 15) were added to each well at concentrations of 0, 1, 2, 5, 10, and 20 μM and incubated for 72 h. Each well was exposed to a 10 μL EZ-Cytox solution (EZ-500®, DoGenBio, Seoul, Republic of Korea) and incubated for 2 h. To determine cell viability, well optical density was measured at 450 nm using an ELISA reader.

zebrafish larvae = assay: Zebrafish depigmentation assay using zebrafish embryos; assay type: in vivo, Danio rerio; settings: 0.1 mM vs kojic acid 20 mM; treated at 28 hpf, read at 76 hpf
Protocol: Zebrafish embryos were used to determine whether the synthesized compounds could inhibit melanin synthesis in vivo. […] The degree of depigmentation in zebrafish larvae was confirmed by photography 48 h later (Figure 8A). The density of the zebrafish larvae was measured using a CS analyzer 3.2 (Atto, Tokyo, Japan). […] To obtain zebrafish (wild type, Danio rerio) eggs for the experiment, six male and nine female zebrafish were raised separately in oxygen-connected tanks. Dried brine shrimp (Artemia salina, San Francisco Bay Brand, San Francisco, CA, USA) were fed as food three times per day. They were raised at 28 °C with 10 h of light blocking and 14 h of light exposure. The evening before obtaining zebrafish eggs, three females and two males were placed together in three zebrafish mating cages, and the light was blocked. The following morning, mating was induced by exposure to light. Harvested zebrafish eggs, obtained free of charge from the Zebrafish Center for Disease Modeling (Chungnam National University, Daejeon, Republic of Korea), were kept in an E3 embryonic solution containing methylene blue (MB) until the dechorionation process was performed. […] The pigmented areas in the zebrafish larval photographs were determined using an ATTO CS analyzer 3.2 (Tokyo, Japan).

[3] = Assay for ABTS+ radical scavenging; settings: 100 μM
Protocol: The ABTS^+-scavenging efficacy of compounds 1–15 was determined by oxidizing ABTS with K2S2O8 to prepare ABTS^+. The prepared ABTS^+ solution was mixed with the test samples (1–15 and Trolox, a positive control) and the radical-scavenging efficacy of the test samples was explored by measuring the decrease in optical density at 732 nm. All test samples were tested at 100 μM.
To acquire ABTS^+ radicals, ABTS (14 mM in 20 mL H2O) was mixed with K2S2O8 (4.9 mM in 20 mL H2O), an oxidant agent, and stored at 22 °C in a place without light for 15 h. The absorbance of the prepared ABTS^+ radical solution was adjusted to 0.70 ± 0.01 at 732 nm by adding methanol. Test samples (Trolox [positive control] and 1–15) were dissolved in a co-solvent (DMSO:EtOH = 1:10 [v/v]). The diluted ABTS^+ radical solution (90 μL) was added to the test sample solution (10 μL) in each well of a 96-well plate and held at 22 °C in the dark for 2 min. The optical density of each well was recorded at 732 nm every 1 min for 10 min using an ELISA reader. The final concentration of test samples was 100 μM. %Radical-scavenging activity was determined using the formula 100 × [(Abscon − Abssam)/Abscon], where Abscon and Abssam represent the optical densities of the control and the samples, respectively.

B16F10 cells [4] = assay: In situ cellular tyrosinase activity assay (L-DOPA staining); assay type: cell-based; settings: α-MSH + IBMX, 72 h, then L-DOPA 2 h
Protocol: The effect of 10 on cellular tyrosinase activity was investigated in situ using L-DOPA and B16F10 cells. This experimental method allows for the direct observation of cellular melanin production. […] After 72 h of incubation, the cells were treated with L-DOPA for 2 h to induce melanin production.
A 24-well plate containing 1 × 10^3 B16F10 cells per well was incubated at 37 °C for 24 h. […] After incubation for 72 h, the cells were fixed for 50 min using paraformaldehyde (4%), rinsed twice with PBS, and permeabilized for 2 min using Triton X-100 (0.1%). The cells were washed with PBS and 500 μL of 2 mM L-DOPA solution was added. After the cells were incubated at 37 °C for 2 h, stained images were obtained using a camera connected to a microscope (Motic, Hong Kong, China).

[5] = tested on: B16F10 cellular tyrosinase; assay: Cellular tyrosinase activity assay in B16F10 cells; assay type: cell-based; settings: α-MSH + IBMX, 72 h
Protocol: We analyzed the effect of 10 on B16F10 cellular tyrosinase activity to determine whether the ability of 10 inhibiting melanogenesis results from its ability to inhibit cellular tyrosinase activity.
A 6-well microplate containing 5 × 10^3 B16F10 cells per well was incubated at 37 °C for 24 h. Compound 10 was added to each well at 5, 10, and 20 μM and incubated for 1 h, and then stimulators (1 μM α-MSH and 200 μM IBMX) were added to each well before 72 h incubation.
To measure the cellular tyrosinase activity, the cells incubated for 72 h were washed 2 times with PBS, exposed to a 100 μL lysis buffer solution containing 5 μL 2 mM phenylmethylsulfonyl fluoride, 5 μL 20% Triton X-100, and 90 μL 50 mM phosphate buffer (pH 6.5), and cultivated for 30 min at −80 °C. After the lysates were centrifuged at 4 °C for 10 min at 10,000× g, an aliquot (80 μL) of the supernatants was added to each well of a 96-well microplate containing 20 μL of 10 mM L-DOPA. Data for the optical density at 475 nm were obtained every 1 min for 10 min at 37 °C using an ELISA reader to determine cellular tyrosinase activity.

[6] = Assay for DPPH radical scavenging; settings: 500 μM; 30 min in the dark
Protocol: To evaluate the DPPH radical-scavenging efficacy of 1–15, a DPPH methanol solution was mixed with compounds 1–15, and the mixture was left in the dark. After 30 min, the radical-scavenging efficacy of each compound was determined by measuring the optical density at 517 nm. Vitamin C (L-ascorbic acid) was used for comparing radical-scavenging activity, and all test samples were treated at 500 μM.
DPPH was dissolved in methanol to prepare a 0.2 mM solution, and test samples (vitamin C [L-ascorbic acid, LA; positive control] and 1–15) were dissolved in DMSO to prepare a 5 mM solution. The DPPH methanolic solution (180 μL) was added to the test sample DMSO solution (20 μL) in each well of a 96-well microplate and kept in a place without light for 30 min at 22 °C. Using a VersaMax™ ELISA reader, the optical density of each well was recorded at 517 nm to determine DPPH radical-scavenging activity.

B16F10 cells [7] = assay: Melanin content assay in B16F10 cells; assay type: cell-based; settings: α-MSH + IBMX, 72 h
Protocol: After 72 h, the effect of compound 10 on melanin biosynthesis was determined. A 6-well microplate containing 5 × 10^3 B16F10 cells per well was incubated at 37 °C for 24 h. Compound 10 was added to each well at 5, 10, and 20 μM and incubated for 1 h, and then stimulators (1 μM α-MSH and 200 μM IBMX) were added to each well before 72 h incubation. […] For the melanin content quantification, the cells were lysed at 60 °C for 1 h in 100 μL 1N-NaOH solution containing 10% DMSO after washing 2 times with phosphate-buffered saline (PBS). The cell lysates were transferred to a 96-well microplate and the optical density was measured at 405 nm using an ELISA reader to calculate the melanin content in each well.

mushroom tyrosinase, sequence (C7FF04 1-392): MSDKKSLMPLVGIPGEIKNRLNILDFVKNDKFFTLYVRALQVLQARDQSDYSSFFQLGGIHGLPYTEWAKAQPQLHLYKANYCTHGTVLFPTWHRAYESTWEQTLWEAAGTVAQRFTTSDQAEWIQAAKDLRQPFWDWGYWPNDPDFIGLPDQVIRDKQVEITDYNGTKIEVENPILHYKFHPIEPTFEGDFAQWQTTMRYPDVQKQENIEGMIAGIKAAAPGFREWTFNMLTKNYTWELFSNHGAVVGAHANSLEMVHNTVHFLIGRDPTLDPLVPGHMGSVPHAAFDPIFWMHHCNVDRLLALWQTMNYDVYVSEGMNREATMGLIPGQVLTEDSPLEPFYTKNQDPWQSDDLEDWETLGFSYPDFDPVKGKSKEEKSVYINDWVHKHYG

With `O=C1N=C(Nc2cccc3ccccc23)S/C1=C\c1ccc(O)c(Br)c1` [Compound 15, (Z)-5-(3-Bromo-4-hydroxybenzylidene)-2-(naphthalen-1-ylamino)thiazol-4(5H)-one] as the molecule, how does the pKi (mushroom tyrosinase) read?
Its pKi is 5.31.

And the inhibition mechanism (mushroom tyrosinase)?
Its inhibition mechanism is “compete with the substrates for binding to the active site of tyrosinase”.

What about the “tyrosinase activity of zebrafish larvae compared with kojic acid” value ([1]; 0.3 mM vs kojic acid 20 mM) of the same molecule?
The value was “comparable to that of kojic acid, even at a concentration 70 times lower”.

And the “tyrosinase activity of zebrafish larvae” value ([1]; 0.1 and 0.3 mM)?
Its value is “decreased tyrosinase activity in a concentration-dependent manner”.

And the “cytotoxicity in B16F10 cells” value (B16F10 cells [2]; 1 μM)?
Its value is “significant cytotoxicity was observed”.

What about the B16F10 cell viability (B16F10 cells [2]) of the same molecule?
Its B16F10 cell viability is “clearly reduced cell viability in a concentration-dependent manner”.

What about the “depigmentation capacity in zebrafish larvae” value (zebrafish larvae) of the same molecule?
The value was “depigmentation capacity similar to that of kojic acid, even at a concentration 200 times lower”.

Which “ABTS+ scavenging” value [3] does the source give for `O=C1N=C(Nc2cccc3ccccc23)S/C1=C\c1ccc(O)cc1O` [Compound 10, (Z)-5-(2,4-Dihydroxybenzylidene)-2-(naphthalen-1-ylamino)thiazol-4(5H)-one] here?
The value was 97%.

What about the “in situ melanin formation (L-DOPA staining)” value (B16F10 cells [4]; 20 μM) of the same molecule?
The value was “reduced melanin formation to the level of the untreated control”.

And the “in situ melanin formation (L-DOPA staining)” value (B16F10 cells [4]; 5, 10 and 20 μM)?
The value was “dose-dependently decreased melanin formation”.

What about the pKi (mushroom tyrosinase) of the same molecule?
Its pKi is 5.69.

And the inhibition mechanism (mushroom tyrosinase)?
Its inhibition mechanism is “compete with the substrates for binding to the active site of tyrosinase”.

And the B16F10 cell viability (B16F10 cells [2])?
Its B16F10 cell viability is “no perceptible effect on B16F10 cell viability”.

And the cellular tyrosinase activity ([5]; 10 μM)?
Its cellular tyrosinase activity is “slightly more potent tyrosinase inhibitory potency than kojic acid at 20 μM”.

What about the cellular tyrosinase activity ([5]; 20 μM) of the same molecule?
Its cellular tyrosinase activity is “reduced cellular tyrosinase activity to almost the level of cellular tyrosinase activity in the untreated control”.

What about the cellular tyrosinase activity ([5]; 5, 10 and 20 μM) of the same molecule?
Its cellular tyrosinase activity is “dose-dependent decrease in cellular tyrosinase activity”.

And the DPPH radical scavenging [6]?
The DPPH radical scavenging was 51%.

What about the stimulator-induced melanin content (B16F10 cells [7]; 5 μM, kojic acid at 20 μM) of the same molecule?
Its stimulator-induced melanin content is “reduced the stimulator-induced melanin content levels similarly to kojic acid”.

And the melanin content level (B16F10 cells [7]; 20 μM, controls 100%)?
Its melanin content level is 86%.

What about the stimulator-induced melanin content (B16F10 cells [7]; 5, 10 and 20 μM) of the same molecule?
Its stimulator-induced melanin content is “strongly reduced stimulator-induced melanin content dose-dependently”.

With `COc1cc(/C=C2\SC(Nc3cccc4ccccc34)=NC2=O)ccc1O` [Compound 5, (Z)-5-(4-Hydroxy-3-methoxybenzylidene)-2-(naphthalen-1-ylamino)thiazol-4(5H)-one] as the molecule, how does the DPPH radical scavenging [6] read?
Its DPPH radical scavenging is 62%.

What does the source list for `COc1cc(/C=C2\SC(Nc3cccc4ccccc34)=NC2=O)cc(OC)c1O` [Compound 13, (Z)-5-(4-Hydroxy-3,5-dimethoxybenzylidene)-2-(naphthalen-1-ylamino)thiazol-4(5H)-one]?
ABTS+ scavenging [3]: 97%; DPPH radical scavenging [6]: 51%

Which DPPH radical scavenging [6] does the source give for `COc1ccc(/C=C2\SC(Nc3cccc4ccccc34)=NC2=O)cc1O` [Compound 6, (Z)-5-(3-Hydroxy-4-methoxybenzylidene)-2-(naphthalen-1-ylamino)thiazol-4(5H)-one] here?
The DPPH radical scavenging was 21%.

Which DPPH radical scavenging [6] does the source give for `O=C1O[C@H]([C@@H](O)CO)C(O)=C1O` [Vitamin C, L-ascorbic acid, reference compound] here?
The DPPH radical scavenging was 90%.

With `CC(C)(C)c1cc(/C=C2\SC(Nc3cccc4ccccc34)=NC2=O)cc(C(C)(C)C)c1O` [Compound 14, (Z)-5-(3,5-Di-tert-butyl-4-hydroxybenzylidene)-2-(naphthalen-1-ylamino)thiazol-4(5H)-one] as the molecule, how does the “ABTS+ scavenging” value [3] read?
Its value is 95%.

And the DPPH radical scavenging [6]?
Its DPPH radical scavenging is 68%.

With `CCOc1cc(/C=C2\SC(Nc3cccc4ccccc34)=NC2=O)ccc1O` [Compound 7, (Z)-5-(3-Ethoxy-4-hydroxybenzylidene)-2-(naphthalen-1-ylamino)thiazol-4(5H)-one] as the molecule, how does the DPPH radical scavenging [6] read?
Its DPPH radical scavenging is 61%.
